# From the supplement of paper PMC11451515
# Test system: NOMO1
# Assay: cell viability relative to DMSO control; higher = less cytotoxic
# Details: 48 h
# How it was run: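 Viability was expressed as a per-plate percentage of DMSO wells, with cell-free wells as background. Leukemia cells (NOMO1 or SEM at 500 cells/well, P12-Ichikawa at 1000 cells/well) were adapted for at least four passages in each medium and seeded in 1536-well plates (5 μl). Library compounds in DMSO were pin-dosed over an 11-point threefold series from 47 μM to 0.79 nM, and CellTiter-Glo One luminescence was read after 48 h at 37°C.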
# [1] = HPLM + 10% dialyzed FBS, 0.000781 µM
# [2] = HPLM + 10% dialyzed FBS, 0.00234 µM
# [3] = HPLM + 10% dialyzed FBS, 0.00702 µM
# [4] = HPLM + 10% dialyzed FBS, 0.0211 µM
# [5] = HPLM + 10% dialyzed FBS, 0.0632 µM
# [6] = HPLM + 10% dialyzed FBS, 0.19 µM
# [7] = HPLM + 10% dialyzed FBS, 0.569 µM
# [8] = HPLM + 10% dialyzed FBS, 1.71 µM
# [9] = HPLM + 10% dialyzed FBS, 5.12 µM
# [10] = HPLM + 10% dialyzed FBS, 15.4 µM
# [11] = HPLM + 10% dialyzed FBS, 46.1 µM
# [12] = RPMI 5 mM glucose + 10% FBS, 0.000781 µM
# [13] = RPMI 5 mM glucose + 10% FBS, 0.00234 µM
# [14] = RPMI 5 mM glucose + 10% FBS, 0.00702 µM
# [15] = RPMI 5 mM glucose + 10% FBS, 0.0211 µM
# [16] = RPMI 5 mM glucose + 10% FBS, 0.0632 µM
# [17] = RPMI 5 mM glucose + 10% FBS, 0.19 µM
# [18] = RPMI 5 mM glucose + 10% FBS, 0.569 µM
# [19] = RPMI 5 mM glucose + 10% FBS, 1.71 µM
# [20] = RPMI 5 mM glucose + 10% FBS, 5.12 µM
# [21] = RPMI 5 mM glucose + 10% FBS, 15.4 µM
# [22] = RPMI 5 mM glucose + 10% FBS, 46.1 µM
# [23] = RPMI 5 mM glucose + 10% dialyzed FBS, 0.000781 µM
# [24] = RPMI 5 mM glucose + 10% dialyzed FBS, 0.00234 µM
# [25] = RPMI 5 mM glucose + 10% dialyzed FBS, 0.00702 µM
# [26] = RPMI 5 mM glucose + 10% dialyzed FBS, 0.0211 µM
# [27] = RPMI 5 mM glucose + 10% dialyzed FBS, 0.0632 µM
# [28] = RPMI 5 mM glucose + 10% dialyzed FBS, 0.19 µM
# [29] = RPMI 5 mM glucose + 10% dialyzed FBS, 0.569 µM
# [30] = RPMI 5 mM glucose + 10% dialyzed FBS, 1.71 µM
# [31] = RPMI 5 mM glucose + 10% dialyzed FBS, 5.12 µM
# [32] = RPMI 5 mM glucose + 10% dialyzed FBS, 15.4 µM
# [33] = RPMI 5 mM glucose + 10% dialyzed FBS, 46.1 µM
Structure (SMILES),cell viability [1],cell viability [2],cell viability [3],cell viability [4],cell viability [5],cell viability [6],cell viability [7],cell viability [8],cell viability [9],cell viability [10],cell viability [11],cell viability [12],cell viability [13],cell viability [14],cell viability [15],cell viability [16],cell viability [17],cell viability [18],cell viability [19],cell viability [20],cell viability [21],cell viability [22],cell viability [23],cell viability [24],cell viability [25],cell viability [26],cell viability [27],cell viability [28],cell viability [29],cell viability [30],cell viability [31],cell viability [32],cell viability [33]
Oc1cc(-c2nc(-c3ccccc3)[nH]c2-c2ccncc2)ccc1Cl,111%,119%,119%,112%,123%,120%,108%,84.2%,78.8%,49.2%,21.4%,106%,104%,107%,107%,121%,103%,109%,102%,107%,87.1%,32.2%,101%,107%,121%,107%,123%,109%,104%,92.1%,81.3%,74.8%,32%
CCC(C)CCCCC(=O)N[C@@H](CCN)C(=O)NC(C(=O)N[C@H](CCN)C(=O)N[C@@H]1CCNC(=O)C([C@@H](C)O)NC(=O)[C@@H](CCN)NC(=O)[C@@H](CCN)NC(=O)[C@@H](CC(C)C)NC(=O)[C@H](Cc2ccccc2)NC(=O)[C@H](CCN)NC1=O)[C@@H](C)O (some centres not stated),118%,110%,113%,112%,123%,133%,137%,119%,124%,127%,125%,102%,125%,109%,108%,112%,120%,118%,130%,130%,126%,115%,113%,121%,134%,130%,131%,131%,137%,134%,124%,135%,123%
Cc1ccc([C@@H]2O[C@H](CO)[C@@H](O)[C@H](O)[C@H]2O)cc1Cc1ccc(-c2ccc(F)cc2)s1,122%,138%,122%,129%,127%,129%,119%,127%,142%,122%,85.3%,,,,,,,,,,,,,,,,,,,,,,
NC(=O)c1cccc(-c2cc(Nc3ccc(OC(F)(F)F)cc3)ncn2)c1,88.6%,99.5%,96%,93.9%,108%,101%,97.2%,94.1%,103%,84.5%,81.4%,85.8%,91%,93.4%,95.7%,90%,103%,103%,85.8%,90.3%,84.1%,80.5%,91.7%,94.7%,84.3%,86.1%,93.3%,92.8%,88.2%,89.1%,94.2%,79.6%,91.7%
O=C1NC(=O)/C(=C/c2ccc3nccnc3c2)S1,108%,124%,116%,118%,106%,118%,113%,125%,102%,95.9%,89.3%,98.4%,130%,109%,107%,101%,105%,111%,100%,97.1%,86.6%,103%,118%,109%,132%,110%,111%,118%,103%,106%,92.6%,88.8%,95.3%
Nc1n[nH]c2nnc(-c3c(-c4ccccc4)nn4ccccc34)cc12,103%,139%,118%,131%,134%,137%,137%,86.3%,40.5%,37.4%,37.3%,116%,114%,144%,124%,138%,123%,133%,59%,24%,26.9%,20.8%,116%,123%,134%,129%,136%,129%,138%,119%,29.1%,28%,21.4%
Nc1ccc(C(=O)Nc2cccc(-c3nc(N4CCOCC4)c4oc5ncccc5c4n3)c2)cn1,122%,118%,135%,121%,115%,122%,128%,98.8%,67.7%,74.5%,49.3%,118%,123%,129%,104%,118%,110%,115%,108%,82.8%,83.4%,91%,115%,124%,107%,113%,110%,119%,91%,84.9%,65%,73.7%,61.5%
CC1(C)SCCN([S+](=O)([O-])c2ccc(OCC#CCO)cc2)[C@H]1C(=O)NO,121%,108%,102%,101%,124%,126%,115%,112%,99.6%,107%,83.7%,105%,88.3%,99.4%,95.8%,104%,93%,93.9%,87.5%,77.5%,77.4%,82.4%,96.3%,94.8%,103%,90.2%,89.7%,98.5%,84.1%,94.3%,97.3%,95.6%,93.3%
C=CC(=O)Nc1cc2c(Nc3ccc(F)c(Cl)c3)ncnc2cc1C#CC(C)(C)N1CCN(C)CC1,112%,109%,112%,89.9%,92%,108%,117%,89.2%,55.3%,6.12%,6.26%,95.3%,93%,91.7%,95.4%,101%,93.5%,101%,95%,94.6%,7.56%,12.7%,99.2%,101%,107%,95.3%,86.6%,103%,101%,106%,52.7%,8.43%,5.07%
C[C@]12CCC3c4ccc(O)cc4CCC3C1CCC2=O (some centres not stated),102%,102%,106%,103%,107%,91.9%,86.2%,81.6%,93%,78.2%,79.9%,92.2%,91.7%,92.3%,85.7%,87.7%,88.2%,92.4%,90.8%,96.1%,76%,79.6%,82.1%,90.5%,91.7%,92.8%,96.4%,86.5%,86.1%,84.4%,89%,88.6%,81.1%
CCCCCNC(=N)N/N=C/c1c[nH]c2ccc(OC)cc12,123%,121%,134%,132%,137%,135%,147%,137%,132%,71.7%,48.8%,122%,122%,142%,131%,145%,155%,141%,129%,134%,93.4%,26.7%,,,,,,,,,,,
CN(C)c1nc(Cc2ccc(NC(=O)c3ccc(C(F)(F)F)cc3)cc2)nc(N(C)C)c1CC(=O)O,120%,101%,107%,94.5%,119%,112%,103%,96.2%,107%,108%,91.1%,93%,88.6%,87.1%,82.7%,99.4%,89.4%,95.7%,96.6%,86%,91.8%,85.5%,96.1%,95.2%,96.2%,94.1%,91.6%,97.8%,98%,99.8%,96.9%,86.9%,86.8%
O=C(c1cncc(Br)c1)N1CCC(N2CCCC2)CC1,97.9%,122%,124%,110%,103%,105%,97.1%,105%,103%,92.2%,85.3%,93.5%,95.9%,110%,90.6%,91.4%,96.5%,102%,93.1%,94.6%,85.4%,84.4%,112%,105%,106%,106%,105%,103%,100%,100%,98.7%,98.7%,95.9%
CN1CCc2c(c3ccccc3n2Cc2ccc(C(=O)NO)cc2)C1,76%,78.8%,76.3%,79.8%,80%,80.5%,82.6%,87.6%,97.5%,64.7%,38.6%,75.2%,70.2%,77.2%,82.5%,74.1%,73.4%,80.9%,76.5%,75.8%,78.7%,47.2%,71.5%,69.8%,91.9%,91.1%,84.6%,87.7%,89.5%,98%,92.5%,72.3%,53.5%
Cc1c(N)nc([C@H](CC(N)=O)NC[C@@H](N)C(N)=O)nc1C(=O)N[C@H](C(=O)N[C@@H](C)[C@H](O)[C@@H](C)C(=O)N[C@@H](C(=O)NCCc1nc(-c2nc(C(=O)NCCC[S+](C)C)cs2)cs1)[C@@H](C)O)C(O[C@H]1O[C@H](CO)[C@H](O)[C@@H](O)[C@H]1O[C@H]1O[C@H](CO)[C@@H](O)[C@H](OC(N)=O)[C@@H]1O)c1c[nH]cn1 (some centres not stated),117%,112%,128%,125%,121%,128%,108%,74%,40.4%,57.9%,85.9%,101%,100%,95%,98.6%,110%,115%,114%,71.9%,41.1%,72.2%,79.6%,119%,117%,114%,132%,113%,124%,138%,127%,66%,85%,86.7%
